Measurements published in PubChem BioAssay AID1259408 (Genetic Toxicology Data Bank (GENE-TOX), 2018).
The source made the active and inactive calls. The rule behind the calls is not given here.

System: GENE-TOX genotoxicity assays, various organisms and cells
Assay: GENE-TOX mutagenicity studies
Details: for call: Assay Type: In vivo carcinogenicity studies
[1] = Species/Cell Type: Nonhuman, Assay Code: CCGT, Evaluation Type: Evaluation A (Pre-1980)
[2] = Species/Cell Type: Salmonella typhimurium (one or more of the five standard strains: TA98, TA100, TA1535, TA1537, and TA1538), Assay Type: Histidine reverse gene mutation, Ames assay, Assay Code: SALT, Evaluation Type: Evaluation A (Pre-1980)
[3] = Species/Cell Type: Nonhuman, Assay Type: Sister-chromatid exchange (SCE) in vitro, Assay Code: SC2+D, Dose Response: With dose response, Evaluation Type: Evaluation B (Post-1980)
[4] = Species/Cell Type: Bacillus subtilis (H17 vs M45), Assay Type: Rec-assay, spot test, DNA effects (bacterial DNA repair), Assay Code: REW-, Evaluation Type: Evaluation A (Pre-1980)
[5] = Species/Cell Type: Chinese hamster ovary (CHO) cells, Assay Type: Forward gene mutation at the HPRT locus, Assay Code: CHOT, Evaluation Type: Evaluation B (Post-1980)
[6] = Species/Cell Type: Human, Assay Type: Sister-chromatid exchange (SCE) in vitro, Assay Code: SC1+D, Dose Response: With dose response, Evaluation Type: Evaluation B (Post-1980)
[7] = Species/Cell Type: Bacillus subtilis (H17 vs M45), Assay Type: Rec-assay, spot test, DNA effects (bacterial DNA repair), Assay Code: REWT, Evaluation Type: Evaluation A (Pre-1980)
[8] = Species/Cell Type: Saccharomyces cerevisiae, Assay Type: Mitotic recombination or gene conversion, Assay Code: YEC+, Evaluation Type: Evaluation A (Pre-1980)
[9] = Species/Cell Type: Nonhuman, Assay Code: CCG+, Evaluation Type: Evaluation A (Pre-1980)

In the case of Oc1cc2cccc3ccc4c5ccccc5cc1c4c32, the mutagenic call (Species/Cell Type: Chinese hamster lung (V79) cells, Assay Type: Forward gene mutation at the HPRT or ouabain locus, Assay Code: V79-, Evaluation Type: Evaluation A (Pre-1980)) is reported as “inactive; negative”, the call [1] is reported as “no conclusion” and the mutagenic call [2] is reported as “no conclusion”.

Cc1cc2cc3ccccc3cc2c2ccccc12 was tested, and the mutagenic call [3] was “active; positive” and the mutagenic call (Species/Cell Type: Salmonella typhimurium (one or more of the five standard strains: TA98, TA100, TA1535, TA1537, and TA1538), Assay Type: Histidine reverse gene mutation, Ames assay, Assay Code: SAL+*, Activation: With metabolic activation, Evaluation Type: Evaluation A (Pre-1980)) was “active; positive”.

In the case of C[C@H]1CCCC(=O)CCC/C=C/c2cc(O)cc(O)c2C(=O)O1, the mutagenic call (Species/Cell Type: Bacillus subtilis (H17 vs M45), Assay Type: Rec-assay, spot test, DNA effects (bacterial DNA repair), Assay Code: REW+, Evaluation Type: Evaluation A (Pre-1980)) is reported as “active; positive” and the mutagenic call (Species/Cell Type: Saccharomyces cerevisiae, Assay Type: Mitotic recombination or gene conversion, Assay Code: YEH-, Evaluation Type: Evaluation A (Pre-1980)) is reported as “inactive; negative”.

For C/C(=C(\CCOC(=O)c1ccccc1)SC(=O)c1ccccc1)N(C=O)Cc1cnc(C)nc1N, the mutagenic call [4] was “inactive; negative”, the mutagenic call (Species/Cell Type: Escherichia coli WP2, Assay Type: Tryptophan reverse gene mutation, Assay Code: WP2-*, Activation: With metabolic activation, Evaluation Type: Evaluation A (Pre-1980)) was “inactive; negative” and the mutagenic call (Species/Cell Type: Escherichia coli WP2 UVRA, Assay Type: Tryptophan reverse gene mutation, Assay Code: WPU-*, Activation: With metabolic activation, Evaluation Type: Evaluation A (Pre-1980)) was “inactive; negative”.

CN(N=O)C(=O)Nc1ccccc1 was tested, and the mutagenic call [3] was “active; positive”.

In the case of [Li+], the mutagenic call [4] is reported as “inactive; negative” and the mutagenic call (Species/Cell Type: Syrian hamster embryo (SA7/SHE) cells, Assay Type: Cell transformation, viral enhanced, Assay Code: CT7-, Evaluation Type: Evaluation A (Pre-1980)) is reported as “inactive; negative”.

In the case of C=C1C/C(=C/C)C(=O)O[C@@H]2CCN3CC=C(COC(=O)[C@]1(C)O)[C@H]23, the mutagenic call [3] is reported as “active; positive”.

CNC(=O)Oc1cc(C)c(N(C)C)c(C)c1 was tested, and the call (Species/Cell Type: Nonhuman, Assay Code: CCG-L, Evaluation Type: Evaluation A (Pre-1980)) was “inactive; negative”.

With O=C1C=Cc2ccc3c4c(ccc1c24)C(=O)c1ccccc1-3 the mutagenic call (Species/Cell Type: Chinese hamster lung (V79) cells, Assay Type: Forward gene mutation at the HPRT or ouabain locus, Assay Code: V79+, Evaluation Type: Evaluation A (Pre-1980)) was “active; positive”, the call [1] was “no conclusion” and the mutagenic call [2] was “no conclusion”.

With Cc1ccccc1N=Nc1ccc(N=Nc2c(O)ccc3ccccc23)c(C)c1 the mutagenic call [2] was “no conclusion” and the mutagenic call (Species/Cell Type: Syrian hamster embryo (SA7/SHE) cells, Assay Type: Cell transformation, viral enhanced, Assay Code: CT7+, Evaluation Type: Evaluation A (Pre-1980)) was “active; positive”.

NC(=O)c1cccc(N)c1 was tested, and the mutagenic call [5] was “no conclusion”, the mutagenic call [6] was “active; positive” and the mutagenic call [3] was “active; positive”.

With CCNc1nc(NC(C)C)nc(SC)n1 the mutagenic call (Species/Cell Type: Saccharomyces cerevisiae, Assay Type: Mitotic recombination or gene conversion, Assay Code: YEC-, Evaluation Type: Evaluation A (Pre-1980)) was “inactive; negative”.

With COc1cccc2c1cc([N+](=O)[O-])c1c(C(=O)O)cc3c(c12)OCO3 the mutagenic call (Species/Cell Type: Human lymphocytes, Assay Type: Sister-chromatid exchange (SCE) in vitro, Assay Code: SCL+D, Dose Response: With dose response, Evaluation Type: Evaluation B (Post-1980)) was “active; positive” and the mutagenic call [6] was “active; positive”.

For Cc1ccc(N2CC[N+](C)([O-])CC2)c2c(=O)c3ccc(Cl)cc3sc12, the mutagenic call [2] was “no conclusion”.

With O[C@H]1[C@H](O)[C@@H](O)c2c(cc3ccc4cccc5ccc2c3c45)[C@@H]1O the mutagenic call (Species/Cell Type: Chinese hamster lung (V79) cells, Assay Type: Forward gene mutation at the HPRT or ouabain locus, Assay Code: V79-*, Activation: With metabolic activation, Evaluation Type: Evaluation A (Pre-1980)) was “inactive; negative”.

CC(C)C[C@H]1C(=O)N2CCC[C@H]2[C@]2(O)O[C@](NC(=O)[C@@H]3C=C4c5cccc6[nH]c(Br)c(c56)C[C@H]4N(C)C3)(C(C)C)C(=O)N12 was tested, and the mutagenic call (Species/Cell Type: Human lymphocytes, Assay Type: Sister-chromatid exchange (SCE) in vitro, Assay Code: SCLT, Evaluation Type: Evaluation B (Post-1980)) was “no conclusion”, the mutagenic call (Species/Cell Type: Human, Assay Type: Sister-chromatid exchange (SCE) in vitro, Assay Code: SC1T, Evaluation Type: Evaluation B (Post-1980)) was “no conclusion” and the mutagenic call (Species/Cell Type: Human, Sex: Male, Assay Type: Sperm morphology, Assay Code: SPH-, Evaluation Type: Evaluation A (Pre-1980)) was “inactive; negative”.

For CCN(Cc1cccc(S(=O)(=O)O)c1)c1ccc(C(=C2C=CC(=[N+](CC)Cc3cccc(S(=O)(=O)[O-])c3)C=C2)c2ccc(S(=O)(=O)O)cc2)cc1, the mutagenic call [7] was “no conclusion”, the mutagenic call (Species/Cell Type: Bacillus subtilis (H17 vs M45T), Assay Type: Rec-assay, spot test, DNA effects (bacterial DNA repair), Assay Code: REXT, Evaluation Type: Evaluation A (Pre-1980)) was “no conclusion” and the mutagenic call (Species/Cell Type: Salmonella typhimurium (one or more of the five standard strains: TA98, TA100, TA1535, TA1537, and TA1538), Assay Type: Histidine reverse gene mutation, Ames assay, Assay Code: SAL-, Evaluation Type: Evaluation A (Pre-1980)) was “inactive; negative”.

CCCN(N=O)C(N)=O was tested, and the mutagenic call (Species/Cell Type: Human diploid fibroblasts, Assay Type: Unscheduled DNA synthesis (UDS) in vitro, DNA effects, Assay Code: UDH-, Evaluation Type: Evaluation A (Pre-1980)) was “inactive; negative”, the call (Species/Cell Type: Nonhuman, Assay Code: CCG+L, Evaluation Type: Evaluation A (Pre-1980)) was “active; positive” and the mutagenic call [8] was “active; positive”.

For CCCCC(CC)COC(=O)c1ccccc1C(=O)O (stereo not given), the mutagenic call [5] was “no conclusion” and the mutagenic call (Species/Cell Type: Nonhuman, Assay Type: Sister-chromatid exchange (SCE) in vitro, Assay Code: SC2-, Evaluation Type: Evaluation B (Post-1980)) was “inactive; negative”.

With COCCOc1cnc(NS(=O)(=O)c2ccccc2)nc1 the mutagenic call (Species/Cell Type: Nonhuman, Assay Type: Sister-chromatid exchange (SCE) in vivo, Assay Code: SC3T, Evaluation Type: Evaluation B (Post-1980)) was “no conclusion”.

CCN(Cc1cccc(S(=O)(=O)O)c1)c1ccc(C(=C2C=CC(=[N+](CC)Cc3cccc(S(=O)(=O)[O-])c3)C=C2)c2ccccc2)cc1 was tested, and the mutagenic call [7] was “no conclusion”.

With O=NN(CCCl)C(=O)NCCCCNC(=O)N(CCCl)N=O the mutagenic call (Species/Cell Type: Drosophila melanogaster, Assay Type: Sex-linked recessive lethal gene mutation, Assay Code: SRL+, Evaluation Type: Evaluation A (Pre-1980)) was “active; positive” and the mutagenic call [8] was “active; positive”.

In the case of C=CBr, the mutagenic call (Species/Cell Type: Tradescantia species, Assay Type: Gene mutation, Assay Code: TRM+D, Dose Response: With dose response, Evaluation Type: Evaluation A (Pre-1980)) is reported as “active; positive”.

For Cn1c(=O)c(N)c(-c2ccccc2)c2cc(Cl)ccc21, the mutagenic call [2] was “no conclusion”.

In the case of O=NN(CCO)CCO, the mutagenic call (Species/Cell Type: Mammalian polychromatic erythrocytes, Assay Type: Micronucleus test, chromosome aberrations, Assay Code: MNTT, Evaluation Type: Evaluation B (Post-1980)) is reported as “no conclusion” and the call [9] is reported as “active; positive”.

With COC(=O)[C@H]1[C@H]2C[C@@H]3c4[nH]c5cc(OC)ccc5c4CCN3C[C@H]2C[C@@H](OC(=O)c2cc(OC)c(OC)c(OC)c2)[C@@H]1OC the mutagenic call (Species/Cell Type: Aspergillus nidulans, Assay Type: Aneuploidy, chromosome aberrations, Assay Code: ASNT, Evaluation Type: Evaluation A (Pre-1980)) was “no conclusion” and the call [9] was “active; positive”.

Cc1cc2c(C(C)C)c(O)c(O)c(C=O)c2c(O)c1-c1c(C)cc2c(C(C)C)c(O)c(O)c(C=O)c2c1O was tested, and the mutagenic call (Species/Cell Type: Human lymphocytes, Assay Type: Sister-chromatid exchange (SCE) in vitro, Assay Code: SCL+, Evaluation Type: Evaluation B (Post-1980)) was “active; positive”, the mutagenic call (Species/Cell Type: Human, Assay Type: Sister-chromatid exchange (SCE) in vitro, Assay Code: SC1+, Evaluation Type: Evaluation B (Post-1980)) was “active; positive” and the mutagenic call (Species/Cell Type: Human, Sex: Male, Assay Type: Sperm morphology, Assay Code: SPH+, Evaluation Type: Evaluation A (Pre-1980)) was “active; positive”. For the same compound, the mutagenic call (Species/Cell Type: Mouse, Sex: Male, Assay Type: Sperm morphology, Assay Code: SPI+, Evaluation Type: Evaluation A (Pre-1980)) was “active; positive”, the mutagenic call (Species/Cell Type: Rabbit, Sex: Male, Assay Type: Sperm morphology, Assay Code: SPRT, Evaluation Type: Evaluation A (Pre-1980)) was “no conclusion” and the mutagenic call (Species/Cell Type: Rat, Sex: Male, Assay Type: Sperm morphology, Assay Code: SPA+, Evaluation Type: Evaluation A (Pre-1980)) was “active; positive”.

For CCCCCCC(=O)N(C)N=O, the mutagenic call (Species/Cell Type: Saccharomyces cerevisiae, Assay Type: Reverse gene mutation, Assay Code: YER+, Evaluation Type: Evaluation A (Pre-1980)) was “active; positive”.

For COc1cc(NO)ccc1N=Nc1ccccc1, the mutagenic call [2] was “no conclusion”.

In the case of CCCCCC[C@@H](O)C1C2=C(CC([C@H](O)C3CCCC(=O)O3)CC3=C(C(=O)OC3=O)[C@@H]1O)C(=O)OC2=O (stereo not given in full), the mutagenic call (Species/Cell Type: Rodents, Sex: Male, Assay Type: Dominant lethal test, Assay Code: DLT-, Evaluation Type: Evaluation A (Pre-1980)) is reported as “inactive; negative”.

With C[C@H](N)C(=O)c1ccccc1 the mutagenic call (Species/Cell Type: Mammalian polychromatic erythrocytes, Assay Type: Micronucleus test, chromosome aberrations, Assay Code: MNT+, Evaluation Type: Evaluation B (Post-1980)) was “active; positive”.

For O=C(OCC1=CCN2CC[C@@H](OC(=O)c3ccc4c(c3)OCO4)[C@@H]12)c1ccc2c(c1)OCO2, the mutagenic call (Species/Cell Type: Allium cepa, Assay Type: Chromosome aberrations, Assay Code: ALC+, Evaluation Type: Evaluation A (Pre-1980)) was “active; positive”.
